# pEC50: −log10 of the molar value.
# Molecular target: T1, recombinant human pancreatic GLK (Homo sapiens, UniProt P35557)
# T1 sequence (P35557 1-465): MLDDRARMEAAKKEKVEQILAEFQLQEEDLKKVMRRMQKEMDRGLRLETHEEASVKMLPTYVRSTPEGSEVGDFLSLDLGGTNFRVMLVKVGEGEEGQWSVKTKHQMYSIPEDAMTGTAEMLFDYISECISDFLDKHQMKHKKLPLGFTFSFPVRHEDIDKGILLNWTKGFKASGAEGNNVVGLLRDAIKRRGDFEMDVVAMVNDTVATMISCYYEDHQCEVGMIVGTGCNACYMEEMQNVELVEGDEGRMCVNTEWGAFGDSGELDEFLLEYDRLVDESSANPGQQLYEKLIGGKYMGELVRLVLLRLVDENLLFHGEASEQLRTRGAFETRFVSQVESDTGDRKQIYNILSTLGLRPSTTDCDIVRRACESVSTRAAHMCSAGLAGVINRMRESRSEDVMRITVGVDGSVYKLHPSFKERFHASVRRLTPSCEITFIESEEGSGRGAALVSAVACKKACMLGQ
# Test: biochemical
structure (smiles),measurement,value
"C[C@@H](COC(F)F)Oc1cc(Oc2ccc(C(=O)N3CCC3)cc2Cl)cc(C(=O)Nc2ccn(C)n2)c1 [Example 1, 3-{[4-(Azetidin-1-ylcarbonyl)-2-chlorophenyl]oxy}-5-({(1S)-2-[(difluoromethyl)oxy]-1-methylethyvl}oxy)-N-(1-methyl-1H-pyrazol-3-yl)benzamide]",pEC50,7.40

# Reference: US20080234273A1, “Heteroaryl Benzamide Derivatives for Use as Glk Activators in the Treatment of Diabetes” (priority 2005, published 2008)
